According to ChEMBL document CHEMBL3861965, “Stereochemical Assignment and Biological Evaluation of BE-14106 Unveils the Importance of One Acetate Unit for the Antifungal Activity of Polyene Macrolactams” (J Nat Prod, 2016):
≈ marks a conversion by molar mass, not a printed value. Calls of active or inactive are those of the source. The calls are words filed in the database; no cut-off is given here.

Key:
Type in all cases: functional
[1] = Antifungal activity against fission yeast harboring deltaerg2 mutant after 24 hrs by turbidity assay; conditions: Schizosaccharomyces pombe
[2] = Antifungal activity against fission yeast harboring deltaerg31/deltaerg32 mutant after 24 hrs by turbidity assay; conditions: Schizosaccharomyces pombe
[3] = Antifungal activity against fission yeast harboring deltaerg5 mutant after 24 hrs by turbidity assay; conditions: Schizosaccharomyces pombe
[4] = Antifungal activity against fission yeast harboring deltasts1/erg4 mutant after 24 hrs by turbidity assay; conditions: Schizosaccharomyces pombe
[5] = Antifungal activity against wild type fission yeast JY1 after 24 hrs by turbidity assay; conditions: Schizosaccharomyces pombe
[6] = test system: Schizosaccharomyces pombe; assay: Antifungal activity against wild type fission yeast JY1 assessed as accumulation of cell wall material at 0.25 uM after 2 hrs by cfw-dye based fluorescence microscopic analysis
[7] = Antifungal activity against wild type fission yeast JY1 after 24 hrs by XTT assay; conditions: Schizosaccharomyces pombe

CCC/C=C/C=C/C[C@@H]1C/C=C/C=C(C)/C=C/C=C\[C@@H](O)[C@@H](O)/C=C(C)/C=C/C=C/C(=O)N1
MIC [1]: 0.13 to 0.28 µM (≈ 0.0585 to 0.126 µg/mL)
MIC [2]: 0.13 to 0.28 µM (≈ 0.0585 to 0.126 µg/mL)
MIC [3]: 0.13 to 0.28 µM (≈ 0.0585 to 0.126 µg/mL)
MIC [4]: 0.13 to 0.28 µM (≈ 0.0585 to 0.126 µg/mL)
MIC [5]: 0.13 to 0.28 µM (≈ 0.0585 to 0.126 µg/mL)
Activity [6]: Active

C[C@@H]1[C@H](O)[C@@H](C)/C=C/C=C/C=C/C=C/C=C/C=C/C=C/[C@H](O[C@@H]2O[C@H](C)[C@@H](O)[C@H](N)[C@@H]2O)C[C@@H]2O[C@](O)(C[C@@H](O)C[C@@H](O)[C@H](O)CC[C@@H](O)C[C@@H](O)CC(=O)O[C@H]1C)C[C@H](O)[C@H]2C(=O)O
MIC [7]: 0.27 µM (≈ 0.25 µg/mL)
